Experimental data as given in patent US20260373127A1, “USE OF DIHYDROBERBERINE OR ITS DERIVATIVES FOR REGULATING GLP-1” (NANJING NUTRABUILDING BIO-TECH CO., LTD., priority 2024, published 2026).

How the values were obtained:
[1] = Body composition analysis (fat content), 8-week mouse study; format: in vivo, mice; conditions: 1.5 mg/kg daily intragastric, 8 weeks
Method: (§1) At the beginning of the experiment, the mice were divided randomly into control mice (Group 1, n=8), HFD group (Group 2, n=8), HFD+DHB group (Group 3, n=8) and NC+DHB group (Group 4, n=8). The dosage of DHB supplementation is 1.5 mg/kg. The group 1 is the control group and is given the normal chow; the group 2 is the high-fat mouse and continue high fat diet for 8 weeks; the group 3 also continued to eat a high-fat diet and received daily intragastric administration of sample for 8 weeks; the group 4 is given the normal chow and received daily intragastric administration of sample for 8 weeks. Record the body fat and weight of each group of mice every week. Complete Oral glucose tolerance test (OGTT)/Insulin intraperitoneal tolerance test (IPTT) on the last day of week 8, then execute the mice and take serum −80 °C for storage.
Body composition analysis: During the experiment, the fat mass and lean mass was measured by Nuclear Magnetic Resonance Body Composition Analyzer once a week.

GLP-1 [2] = assay: GLP-1 in another 14-week mice experiment; format: in vivo; conditions: 35 mg/kg, at week 14
[3] = Body weight in another 14-week mice experiment; format: in vivo; conditions: 35 mg/kg
GLP-1 [4] = assay: Serum GLP-1 by ELISA; format: in vivo, mice; conditions: 1.5 mg/kg; result in words
Method: as §1
(§2) Serum detection by ELISA: At week 8th of the experiment, the whole blood is extracted by removing the eyeball. The serum was acquired after centrifugation (10000 rpm 15 mins), stored at −80 °C for later use. Determinate the concentration of insulin (INS), cholesterol (TC), triglycerides (TG), LDL (low density lipoprotein), HDL (high density lipoprotein), GLP-1 in serum by ELISA kits.

[5] = Serum lipids (TC, TG, LDL, HDL) by ELISA; format: in vivo, mice
Method: as §1, §2

Weight of the fat pad = format: in vivo, mice; conditions: 1.5 mg/kg; result in words
Method: as §1
Weight of the fat pad: At the 17th week, the mice were sacrificed, and the fat pads (subcutaneous, epididymis and perirenal) were dissected, photographed and weighed.

insulin (INS) = assay: Serum insulin (INS) by ELISA; format: in vivo, mice; conditions: 1.5 mg/kg; result in words
Method: as §1, §2

[6] = Fasting blood glucose in another 14-week mice experiment; format: in vivo; conditions: 35 mg/kg, at week 13
[7] = Change of body weight, 8-week mouse study; format: in vivo, mice; conditions: for body weight: DHB 1.5 mg/kg daily intragastric
Method: as §1
Change of body weight: Weigh once a week at a fixed time from beginning of the experiment.

[8] = Insulin intraperitoneal tolerance test (IPTT); format: in vivo, mice
Method: as §1
(§3) Measurement of Blood Glucose: Oral glucose tolerance test (OGTT): At week 16th of the experiment, after fasting for 15 h, Glucose was given […] (2 g/kg), and blood Glucose was measured at 0, 15, 30, 60, 90, 120 mins. Insulin intraperitoneal tolerance test (IPTT): At week 16th of the experiment, after fasting for 15h, insulin (1U/kg) was injected intraperitoneally and blood glucose was measured at 0, 15, 30, 60, 90, 120 mins.

[9] = Acute intervention study on appetite measures in human; format: in vivo; conditions: single 200 mg dose
[10] = Oral glucose tolerance test (OGTT); format: in vivo, mice
Method: as §1, §3

[11] = HFD+DHB group, 1.5 mg/kg daily intragastric, 8 weeks
[12] = NC+DHB group, 1.5 mg/kg daily intragastric, 8 weeks

In the case of `COc1ccc2c(c1OC)CN1CCc3cc4c(cc3C1=C2)OCO4` [DHB, dihydroberberine], the “decrease of fat content compared with HFD group” value ([1]; HFD+DHB group (Group 3)) was “approximately 19%”, the “decrease of fat content compared with control mice” value ([1]; NC+DHB group (Group 4)) was about 35% and the “increase of GLP-1 compared with untreated control group (HFD)” value (GLP-1 [2]) was 165%. The benefits over time ([3]; 14-week mice experiment, result in words) was “Benefits intensified over time rather than plateauing”, the “weight loss compared with untreated control group (HFD group)” value ([3]; by week 7) was “about 15%” and the “weight loss compared with untreated control group (HFD group)” value ([3]; by week 13) was “about 33%”. The “serum GLP-1 relative to mice without DHB supplementation” value (GLP-1 [4]) was “significantly increase”, the “serum HDL relative to mice without DHB supplementation” value ([5]; 1.5 mg/kg, result in words) was “significantly increase” and the “serum LDL relative to mice without DHB supplementation” value ([5]; 1.5 mg/kg, result in words) was “decrease”. The “serum TC relative to mice without DHB supplementation” value ([5]; 1.5 mg/kg, result in words) was “decrease”, the “serum TG relative to mice without DHB supplementation” value ([5]; 1.5 mg/kg, result in words) was “decrease” and the “decrease of LDL compared with HFD group” value [5, 11] was 32.3%. The “increase in serum HDL compared with HFD group” value [5, 11] was 19%, the “increase of ratio of HDL/LDL compared with HFD group” value [5, 11] was 76% and the “reduction in serum TG compared with HFD group” value [5, 11] was 26.1%. For the same compound, the “reduction of blood TC compared with HFD group” value [5, 11] was 20.6%, the “decrease of LDL compared with NC group” value [5, 12] was 18.3% and the “increase in serum HDL compared with NC group” value [5, 12] was 8.8%. For the same compound, the “increase of ratio of HDL/LDL compared with NC group” value [5, 12] was 33%, the “reduction in serum TG compared with NC group” value [5, 12] was 13.2% and the “reduction of blood TC compared with NC group” value [5, 12] was 9.8%. For the same compound, the “pararenal fat pad weight relative to mice without DHB supplementation” value (Weight of the fat pad) was “significantly increase”, the “serum INS relative to mice without DHB supplementation” value (insulin (INS)) was “decrease” and the “decrease of fasting blood glucose compared with untreated control group (HFD group)” value [6] was “about 16%”. The body weight curve ([7]; DHB groups, 1.5 mg/kg, 8 weeks, result in words) was “helpful in inhibiting high fat induced obesity”, the “decrease of body weight compared with HFD group” value [7, 11] was 9.84% and the body weight ([7]; HFD+DHB group, 8 weeks, HFD group 37 g) was 33.36 g. For the same compound, the “decrease of body weight compared with NC group” value ([7]; NC+DHB group, 1.5 mg/kg daily intragastric, at the 8th week) was 7.75%, the body weight ([7]; NC+DHB group, 8 weeks, NC group 33.96 g) was 31.33 g and the “insulin tolerance relative to mice without DHB supplementation” value ([8]; 1.5 mg/kg, result in words) was “improve the blood glucose and insulin tolerance”. The “decrease of AUC of IPTT compared with HFD group” value ([8]; HFD+DHB group (Group 3), 1.5 mg/kg daily intragastric, insulin 1U/kg i.p., 0-120 mins) was “about 27%”, the “decrease of AUC of IPTT compared with control mice” value ([8]; NC+DHB group (Group 4), 1.5 mg/kg daily intragastric, insulin 1U/kg i.p., 0-120 mins) was “approximately 21%” and the subjective appetite [9] was “decreases subjective appetite”. The composite appetite score ([9]; vs placebo) was “beat placebo”, the desire to eat ([9]; vs placebo) was “beat placebo” and the fullness ([9]; vs placebo) was “beat placebo”. For the same compound, the hunger ([9]; vs placebo) was “beat placebo”, the prospective food consumption ([9]; vs placebo) was “beat placebo” and the “blood glucose tolerance relative to mice without DHB supplementation” value ([10]; 1.5 mg/kg, result in words) was “improve the blood glucose and insulin tolerance”. The “decrease of AUC of OGTT compared with HFD group” value ([10]; HFD+DHB group (Group 3), 1.5 mg/kg daily intragastric, glucose 2 g/kg, 0-120 mins) was “approximately 19%” and the “decrease of AUC of OGTT compared with control mice” value ([10]; NC+DHB group (Group 4), 1.5 mg/kg daily intragastric, glucose 2 g/kg, 0-120 mins) was “approximately 10%”.
